The results in this text go back to US11319310B2, “Heterocyclyl-substituted oxadiazolopyridine derivatives for use as ghrelin O-acyl transferase (GOAT) inhibitors” (Boehringer Ingelheim International GmbH, priority 2018, dated 2022).

By IC50 is commonly meant the concentration that inhibits the measured activity by half.

The target of this test is T1, human GOAT (Homo sapiens, UniProt Q96T53).
T1 construct: expressed in transfected cells; host or cells: HEK293 (Hek293 hGOAT/PPGhrl Clone #1B8), stably transfected
T1 sequence (Q96T53 1-435): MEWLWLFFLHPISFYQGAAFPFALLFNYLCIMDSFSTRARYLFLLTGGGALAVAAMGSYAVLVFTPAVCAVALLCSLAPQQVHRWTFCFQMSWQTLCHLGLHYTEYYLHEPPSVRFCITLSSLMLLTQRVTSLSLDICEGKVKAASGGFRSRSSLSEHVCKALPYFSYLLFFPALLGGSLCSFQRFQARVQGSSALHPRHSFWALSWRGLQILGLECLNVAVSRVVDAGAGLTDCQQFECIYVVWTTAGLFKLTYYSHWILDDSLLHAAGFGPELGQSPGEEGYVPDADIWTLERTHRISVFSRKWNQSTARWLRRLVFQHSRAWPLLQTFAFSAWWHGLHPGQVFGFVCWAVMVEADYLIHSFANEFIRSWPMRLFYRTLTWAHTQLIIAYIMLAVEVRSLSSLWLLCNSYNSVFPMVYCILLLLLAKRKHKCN
The test can be described thus: Determination of hGOAT activity in HEK293 cells after incubation with test compound (acyl-ghrelin ELISA). In kind it is cell-based. The settings on record: HEK293 cells stably transfected with preproghrelin and human GOAT; octanoate-BSA 100 μM, 5 hours incubation; acyl-ghrelin in medium by ELISA; 8 compound concentrations. On the procedure:
Determination of hGOAT Activity in HEK293 Cells after Incubation with Test Compound
HEK293 cells stably transfected with two expression vectors, one coding for preproghrelin cDNA and a second for the expression of human GOATcDNA are used as a cellular model. After feeding the cells with octanoic acid for 5 hours, acyl-ghrelin is measured in cell culture medium by an ELISA procedure.
Cellline: Hek293 hGOAT/PPGhrl Clone #1B8 Sodium octanoate, Sigma, Cat.-No. C5038
BD Poly-D-Lysin 384-well Plates, black-clear polystyrene BD Bioscience Cat.-No. […] ELISA human acylated Ghrelin Kit purchased from Bertin Pharman (detailed composition of buffers e.g. wash-puffer, ELISA buffer not known) All further reagents used were of highest analytical grade available.
Cells are plated with a density of 5000 cells/well in 384-well poly-D-lysin plates and incubated for 1 day at 37° C., 5% CO2 in DMEM medium, 10% FCS, 1×NEAA, Puromycin (0.5 μg/ml) and G418 (1 mg/ml). Then the medium is changed to a identical medium without FCS and containing Octanoate-BSA (final concentration 100 μM each) and compound in DMSO (final DMSO concentration 0.3%). After incubation for 5 hours acylghrelin in the medium is measured by ELISA.
The medium sample is diluted 1:25 in Elisa buffer, a 25 μl aliquot is transferred to a 384-well ELISA plate previously washed 4 times with 100 μL wash buffer, and 25 μl tracer-solution is added. After incubation overnight (˜20 h) at 4° C. temperature the plate is washed 4 times with 100 μl wash-buffer per well. Finally 50 μl Ellman's reagent is added to each well and the plate is incubated in the dark for 20 minutes. The absorbance is measured at 405 nm in an Envision multilabel reader and the amount of acylated ghrelin is calculated according to a acylated ghrelin standard curve provided in the same plate.
The analysis of the data is performed by calculation of the percentage of acyl-ghrelin produced in the presence of test compound compared to the amount of acyl-ghrelin produced in the vehicle control samples. An inhibitor of the GOAT enzyme will give values between 100% CTL (no inhibition) and 0% CTL (complete inhibition).
IC50 values are calculated with Assay Explorer or other suited software based on curve fitting of results of 8 different compound concentrations.
Background: An ELISA detects its analyte on a solid surface through an enzyme-linked reagent.
In the case of `Cc1nc2nonc2c(N)c1CN1CCC(C(C)(C)O)C1` (centres unmarked) [Example 1.11], 5 nM corresponded to half-maximal inhibition (IC50).

The compound `Cc1nc2nonc2c(N)c1CN1CCN(S(C)(=O)=O)CC1` [Example 1.13] had a concentration for half-maximal inhibition (IC50) of 5.2 nM.

Regarding `Cc1nc2nonc2c(N)c1CN1CCN(S(=O)(=O)C2CC2)CC1` [Example 2.4], the IC50 was found to be 1.8 nM. Against the preceding compound, the IC50 is about 2.9-fold lower.

`Cc1nc2nonc2c(N)c1CN1CCN(S(=O)(=O)C(F)F)CC1` [Example 2.6] had an IC50 of 0.49 nM.

Regarding `Cc1nc2nonc2c(N)c1CN1CCC(C(F)F)CC1` [Example 1.1, 6-{[4-(Difluoromethyl)piperidin-1-yl]methyl}-5-methyl-[1,2,5]oxadiazolo[3,4-b]pyridin-7-amine], it took 1.3 nM to reach half-maximal inhibition (IC50).

`Cc1nc2nonc2c(N)c1CN1CCC(O)(C(F)(F)F)C1` (centres unmarked) [Example 1.9] gave an IC50 of 1.1 nM.

The compound `Cc1nc2nonc2c(N)c1CN1CCC(S(C)(=O)=O)CC1` [Example 1.3] returned an IC50 of 4.1 nM.

Take `Cc1nc2nonc2c(N)c1CN1CCC(F)(F)C1` [Example 1.12]: the concentration for half-maximal inhibition (IC50) amounted to 7 nM. Compared with the last compound, the IC50 is about 1.7-fold higher.

For `Cc1nc2nonc2c(N)c1CN1CCN(C(=O)C(F)(F)F)CC1` [Example 2.1, 1-[4-({7-Amino-5-methyl-[1,2,5]oxadiazolo[3,4-b]pyridin-6-yl}methyl)piperazin-1-yl]-2,2,2-trifluoroethan-1-one], half-maximal inhibition (IC50) required 5.7 nM.

In turn, `Cc1nc2nonc2c(N)c1CN1CCCC(C(F)(F)F)C1` (centres unmarked) [Example 3.3] registered a 50% inhibitory concentration (IC50) of 1.7 nM.

In turn, `Cc1nc2nonc2c(N)c1CN1CCN(C(=O)C2CC2)CC1` [Example 2.3] had a 50% inhibitory concentration (IC50) of 4.2 nM.

Consider `Cc1nc2nonc2c(N)c1CN1CCN(S(=O)(=O)C(F)(F)F)CC1` [Example 2.2], for which the IC50 turned out to be 0.64 nM.

`Cc1nc2nonc2c(N)c1CN1CC(C(F)(F)F)C1` [Example 1.6] had a 50% inhibitory concentration (IC50) of 1.9 nM.

As to `Cc1nc2nonc2c(N)c1CN1CCOC(C)(c2ccc(F)cc2)C1` (centres unmarked) [Example 3.5], the midpoint of inhibition, the IC50, lay at 4 nM.

Regarding `Cc1nc2nonc2c(N)c1CN1CCCC(F)(F)C1` [Example 3.1, 6-(3,3-Difluoro-piperidin-1-ylmethyl)-5-methyl-[1,2,5]oxadiazolo[3,4-b]pyridin-7-ylamine], the IC50 was 7.4 nM.

The compound `Cc1nc2nonc2c(N)c1CN1CCC(c2cccc(C(F)(F)F)c2)C1` (centres unmarked) [Example 1.8] came in with an IC50 of 1.4 nM.

Turning to `Cc1nc2nonc2c(N)c1CN1CCC(C(F)(F)F)C1` (centres unmarked) [Example 1.7], the IC50 is 0.56 nM.

`Cc1nc2nonc2c(N)c1CN1CCC(OC(F)(F)F)CC1` [Example 1.4]: it took 0.56 nM to reach half-maximal inhibition (IC50).

On to `Cc1nc2nonc2c(N)c1CN1CCC(C(F)(F)F)CC1` [Example 3.4], for which the IC50 was 1.3 nM.

Consider `Cc1nc2nonc2c(N)c1CN1CCC(F)(F)CC1` [Example 3.2], for which the IC50 is 2.2 nM. Compared with the last compound, the IC50 is about 1.7-fold higher.

As for `COC(=O)N1CCN(Cc2c(C)nc3nonc3c2N)CC1` [Example 2.5], half-maximal inhibition (IC50) required 6.5 nM.

Take `Cc1nc2nonc2c(N)c1CN1CCN(C(=O)OC(C)(C)C)CC1` [Example 1.5, tert-Butyl 4-({7-amino-5-methyl-[1,2,5]oxadiazolo[3,4-b]pyridin-6-yl}methyl)piperazine-1-carboxylate]: half-maximal inhibition (IC50) was put at 0.43 nM.

`Cc1nc2nonc2c(N)c1CN1CCC(C#N)CC1` [Example 1.2] returned an IC50 of 3.6 nM.
